Read-outs that look alike come from different tables or passages of the source.
Assays:
[1] = molecular target: T1, complement C5a receptor 1 (C5aR1) (Homo sapiens, UniProt P21730); assay: β-arrestin recruitment via C5aR1 activation in live CHO-K1 cells (PathHunter), antagonist mode; format: cell-based; settings: antagonist mode; recombinant hC5a (EC90) as competing natural agonist; live CHO-K1 cells; read-out: [Antagonist] B-arrestin2 recruitment: Average IC50
T1 construct: β-galactosidase fragment (PathHunter enzyme complementation); host or cells: CHO-K1 (PathHunter CHO-K1 C5aR1 β-arrestin cell line)
T1 sequence (P21730 1-350): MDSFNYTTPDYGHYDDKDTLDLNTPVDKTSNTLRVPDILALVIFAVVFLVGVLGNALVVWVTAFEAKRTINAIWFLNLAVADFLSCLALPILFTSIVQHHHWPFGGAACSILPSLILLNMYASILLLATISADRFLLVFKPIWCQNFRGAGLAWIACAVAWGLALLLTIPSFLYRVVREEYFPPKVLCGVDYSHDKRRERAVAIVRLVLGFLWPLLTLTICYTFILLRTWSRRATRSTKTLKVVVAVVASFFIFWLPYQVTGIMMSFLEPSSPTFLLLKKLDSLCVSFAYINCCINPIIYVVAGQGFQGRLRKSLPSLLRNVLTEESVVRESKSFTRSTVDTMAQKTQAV
Outline: (§1)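 β-arrestin recruitment to C5aR1 in CHO-K1 cells is detected by enzyme-fragment complementation. Antagonism is measured against recombinant hC5a at its EC90; agonism is measured with compound alone. Potencies are grouped into IC50 categories.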

[2] = molecular target: T1, complement C5a receptor 1 (C5aR1); assay: β-arrestin recruitment via C5aR1 activation in live CHO-K1 cells (PathHunter), agonist mode; format: cell-based
Outline: as §1

Row | SMILES | IC50 [1] [µM] | [Agonist] B-arrestin2 recruitment: Average EC50 (nM) [2] | [Agonist] B-arrestin2 recruitment: Average EC50 (nM) ([2]; at 10 μM)
1 | Cc1c(N2CCC(c3cc4nccnc4n(Cc4ccccc4C(F)(F)F)c3=O)CC2)ccnc1F [compound 29, 7-(1-(2-Fluoro-3-methylpyridin-4-yl)piperidin-4-yl)-5-(2-(trifluoromethyl)benzyl)pyrido-[2,3-b]pyrazin-6(5H)-one] | 5 to 100 | Non-Active | 
2 | O=c1c(C2CCN(c3cnccc3Cl)CC2)cc2nccnc2n1Cc1ncccc1C(F)(F)F [compound 71, 7-(1-(4-Chloropyridin-3-yl)piperidin-4-yl)-5-((3-(trifluoromethyl)pyridin-2-yl)methyl)-pyrido[2,3-b]pyrazin-6(5H)-one] | 0.5 to 5 | Non-Active | 
3 | COc1nccnc1Cn1c(=O)c(C2CCN(c3c(C)cccc3F)CC2)cc2nccnc21 [compound 5, 7-(1-(2-Fluoro-6-methylphenyl)piperidin-4-yl)-5-((3-methoxypyrazin-2-yl)methyl)pyrido[2,3-b]pyrazin-6(5H)-one] | 0.5 to 5 | Non-Active | 
4 | COc1nccnc1N1CCC(c2cc3nccnc3n(Cc3ccccc3C(F)(F)F)c2=O)CC1 [compound 9, 7-(1-(3-Methoxypyrazin-2-yl)piperidin-4-yl)-5-(2-(trifluoromethyl)benzyl)pyrido[2,3-b]pyrazin-6(5H)-one] | 5 to 100 | Non-Active | 

Next, values leading:

Row | IC50 [1] [µM] | [Agonist] B-arrestin2 recruitment: Average EC50 (nM) [2] | [Agonist] B-arrestin2 recruitment: Average EC50 (nM) ([2]; at 10 μM) | SMILES
5 | > 100 | Non-Active |  | O=c1c(C2CCN(c3cccnc3F)CC2)cc2nccnc2n1Cc1ncccc1C(F)(F)F [compound 72, 7-(1-(2-Fluoropyridin-3-yl)piperidin-4-yl)-5-((3-(trifluoromethyl)pyridin-2-yl)methyl) pyrido[2,3-b]pyrazin-6(5H)-one]
6 | < 0.5 |  | Non-Active at 10 μM | COc1nccnc1Cn1c(=O)c([C@H]2CC[C@H](c3c(C)cccc3F)CC2)cc2ncc(C)nc21 [compound 173, 7-((1r,4r)-4-(2-Fluoro-6-methylphenyl)cyclohexyl)-5-((3-methoxypyrazin-2-yl)methyl)-3-methylpyrido[2,3-b]pyrazin-6(5H)-one]
